Results on 97 molecules are retold here after PubChem BioAssay AID624491 (Broad Institute, 2012).

The source made the active and inactive calls.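 How the source made its calls: active means fitted curve crossing a set activation limit at or below the highest valid dose tested; inconclusive means flat fit at 30 to 70% activation, or poor fit; inactive means the rest, including signal decreases.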

The subject of this test is D54 ERlucT glycosylation luciferase reporter, luminescence, 24 h. The experiment in a line: blockers of NLG process in reporter cells – D54 ERlucT cells, luminescence, cherry-picks, dose response (AID 624491).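 Further: signal gain reflects blocked N-linked glycosylation of a luciferase reporter; actives raise luciferase signal so AC26 marks activators of the reporter.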

On to `CCC1=Nc2cc(C(=O)NCCCOC)ccc2Sc2ccccc21`, for which the AC26 is 0.422 µM. Then `Cc1cccn2c(=O)c3cc(C(=O)NC4CCCCC4)n(C)c3nc12`, with 10.2 µM. Then `COc1ccc(NC(=O)c2nc(C)c(C3(C)CC(c4ccccc4)=NO3)s2)cc1` (configuration not stated), with 4.02 µM; and `CC(=O)Nc1cccc(-c2ccnc3c2CC(C)(C(=O)NCCC(F)(F)F)O3)c1` (configuration not stated), with 4.32 µM; and `Cc1ccc(NC(=O)CSc2nnc(-c3ccco3)c(-c3ccco3)n2)cc1`, with 1.24 µM.

Take `Cc1ccc(-c2nc(NCCN(C)C)c3ccccc3n2)cc1`: the AC26 was 4.94 µM. In the case of `COc1ccc(N/C=C/C(=O)c2cc(OC)c(OC)c(OC)c2)cc1` it was 0.0287 µM. Then `COc1cccc(C(N)c2nc(-c3csc4ccccc34)cs2)c1` (configuration not stated), with 3.59 µM; and `COc1ccc(-n2c(NNC(C)=O)nc3sc4c(c3c2=O)CCCC4)cc1`, with 6.72 µM; and `COc1cc2nc(NC(=O)c3ccc(F)cc3Cl)sc(=O)c2cc1OC`, with 1.9 µM. In the case of `COc1ccc(/C=C/C(=O)c2ccc(Cl)s2)cc1O` it was 4.73 µM. On to `O=C(CNC(=O)c1ccco1)N=Nc1c(O)n(CCc2ccccc2)c2ccccc12`, for which the AC26 is 1.43 µM. Then `CCN1C(=O)c2cccc3c(S(=O)(=O)NCC4CCCO4)ccc1c23` (configuration not stated), with 2.99 µM. Regarding `Cc1ccc(N2CCN(C3=NC(=O)/C(=C\c4cn[nH]c4-c4ccccc4)S3)CC2)cc1`, the AC26 is 1.35 µM.

For the molecule `COc1ccc(CCn2c(=N)c(C(=O)NCc3ccco3)cc3c(=O)n4ccccc4nc32)cc1OC`, the AC26 was 6.41 µM.

For `OCCNc1c2ccccc2nc2ccccc12`, the AC26 was 0.907 µM. Then `C[C@H](CO)N1C[C@H](C)[C@@H](CN(C)S(=O)(=O)c2ccccc2)Oc2c(NC(=O)Cc3ccccc3)cccc2C1=O`, with 3.4 µM; and `CC(=O)Nc1ccc(NC(=O)c2ccc(-c3c(C)noc3C)c3ccoc23)cc1`, with 1.35 µM; and `COc1ccccc1NS(=O)(=O)c1ccc(-c2cc(C)no2)s1`, with 5.83 µM. For `CCOC(=O)/C=C/C(=O)Nc1ccc(S(=O)(=O)N(C)c2ccccc2)cc1`, the AC26 is > 5 µM (inactive). Then `O=C(OCn1ncc(Cl)c(Cl)c1=O)c1ccc(C(F)(F)F)cc1`, with 1.13 µM; and `Cc1cc(Nc2cc(Cl)cc(Cl)c2)nc(N)n1`, with 1.28 µM. Then `c1ccc2c(c1)nc(N1CCOCC1)c1c3ccccc3[nH]c21`, with 7.17 µM; and `CCCCCCCCCCCCCCCCCCNc1ccn(C2OC(COP(=O)(O)OCC3OC(n4cc(F)c(=O)[nH]c4=O)CC3O)C(O)C2O)c(=O)n1` (configuration not stated), with 3.97 µM; and `COC(=O)c1ccccc1-c1ccc(C(c2c(C)[nH][nH]c2=O)c2c(C)[nH][nH]c2=O)o1`, with 5.96 µM. In the case of `CC(C)Oc1ccccc1C1CC(=O)Nc2cc3c(cc21)OCCO3` (configuration not stated) it was 0.844 µM; in that of `O=C(N/N=C/C(Br)=C/c1ccccc1)c1cc(-c2ccco2)[nH]n1`, 5.35 µM.

For `CC1(C)Cc2nc3sc4c(SCC(=O)NCc5ccccc5)ncnc4c3cc2CO1`, the AC26 was 0.16 µM. In the case of `O=C1[C@@H]2Cc3c([nH]c4ccccc34)C(c3ccc([N+](=O)[O-])cc3)N2C(=O)CN1C1CC1` (some centres not stated) it was 11.5 µM.

Consider `Cn1nc(C(=O)Nc2cccc(S(=O)(=O)N3CCCCC3)c2)c2ccccc2c1=O`, for which the AC26 was 0.284 µM.

With `COc1ccc2c(c1)[C@H]1[C@H](CO2)[C@H](c2ccccc2)[C@]2(C)C(=O)Nc3cc(OC)c(OC)cc3C(=O)N12`, the AC26 was 0.0131 µM.

For `O=C(Nc1c2ccccc2nc2ccccc12)C(Cl)(Cl)Cl`, the AC26 is 3.34 µM.

As to `CC[C@H](C)[C@@H](NC(=O)O[C@@H]1C(=O)c2cc(OC)ccc2O[C@H]1c1ccc(OC)c(Br)c1)C(=O)OC`, the AC26 was 0.335 µM. In the case of `COc1ccc(OC)c(Nc2nc(-c3c(C)nc4ncccn34)cs2)c1` it was 2.73 µM. In the case of `NC(=O)/C=C/C(=O)Nc1ccc(Cl)cc1` it was 15.1 µM; in that of `COc1nc(=O)n(C2C=CC(=O)O2)cc1F` (configuration not stated), 3.2 µM; in that of `CC(=O)Nc1sc(C)c(C)c1C(=O)OCC(=O)N(CC(C)C)c1c(N)n(Cc2ccccc2)c(=O)[nH]c1=O`, 4.71 µM. Then `C=CCN=C(SCC(=O)c1ccc(Cl)cc1)c1c(O)n(C)c(=O)n(C)c1=O`, with 2.34 µM; and `COc1ccc(S(=O)(=O)Nc2ccc3c(c2)n(C)c(=O)n3C)cc1C`, with 9.91 µM. As for `CCOC(=O)c1cc2sccc2n1CC(=O)N1CCc2ccccc21`, the AC26 was 7.5 µM.

As to `NC(=O)c1cccc(-c2coc3c(C(=O)NCc4ccccc4)cccc23)c1`, the AC26 is 4.07 µM.

For `COc1cc(OC)c(N2CC(C(=O)Nc3cc(Cl)ccc3N3CCOCC3)CC2=O)cc1Cl` (configuration not stated), the AC26 is 3.31 µM. Then `C=CCOc1ccc(/C=C2\SC(N3CCCCC3)=NC2=O)cc1`, with 5.42 µM. Turning to `O=C(NCc1cccs1)C1CC(c2ccc(Cl)c(Cl)c2)=NO1` (configuration not stated), the AC26 is 5.4 µM. In the case of `NC(=O)c1cccc(Nc2nc(C(N)CCc3ccccc3)cs2)n1` (configuration not stated) it was 8.64 µM; in that of `COc1cc(C)cc(C(=O)C=Cc2ccccc2)c1O`, 4.92 µM; in that of `O=C(NCc1ccccc1)C(=O)NCC1COc2ccccc2O1` (configuration not stated), 13 µM. For the molecule `COc1cc(C(=O)N/N=C/c2ccc3c(c2)c2ccccc2n3C)ccc1O`, the AC26 was 4.07 µM. Then `CCc1ccc(N2C(=O)Nc3ccccc3C2(O)C(=O)N2CCN(c3ccccn3)CC2)cc1` (configuration not stated), with 0.625 µM; and `CSC1=NC(C(Cl)(Cl)Cl)N=C(c2ccccc2)N1` (configuration not stated), with 1.47 µM; and `Cc1nn(-c2ccccc2)c(Cl)c1/C=C/C(=O)c1ccc(O)cc1`, with 5.02 µM. Then `COc1ccc(C(=O)CSc2nn3c(=O)c(C(C)(C)C)nnc3s2)cc1`, with 3.87 µM; and `CCOc1ccccc1C1CC(=O)Nc2cc3c(cc21)OCO3` (configuration not stated), with 4.37 µM; and `CCOc1ccc(S(=O)(=O)N2CCN=C2c2ccccc2)cc1`, with 3.39 µM.

Turning to `CCc1ccc(CNC(=O)Cc2ccc(NC(=O)C3=C(C)OCCS3)cc2)cc1`, the AC26 is 0.352 µM. With `c1cc2c3c(cccc3c1)C(N1CCCCC1)=N2`, the AC26 was 13.7 µM. Then `COc1ccc(CNC(=O)c2cccc3c(-c4cccnc4)coc23)cc1OC`, with 2.69 µM; and `OCCCCCN=c1cc(-c2ccccc2)oc2ccc(Cl)cc12`, with 1.97 µM. In the case of `CCOC(=O)c1[nH]c2c(c1-c1ccccc1)C(=O)CC(c1ccccc1)C2` (configuration not stated) it was 1.48 µM.

As for `Cn1c(=O)[nH]c(=O)c2c1nc(N(CCO)Cc1ccccc1)n2CCCc1ccccc1`, the AC26 is 0.8 µM.

Turning to `CCOCCCNC(=O)c1cc2c(=O)n(CC)c3ccccc3c2s1`, the AC26 is 8.29 µM. In the case of `Cc1ccc(C(=O)c2coc3c2C(=O)C(=O)c2ccccc2-3)cc1` it was 4.63 µM; in that of `O=C(CCl)Nc1cc(S(=O)(=O)N2CCCCCC2)ccc1Cl`, 0.441 µM; in that of `CCn1c2ccccc2c2cc(NC(=O)COC(=O)c3ccc(O)cc3)ccc21`, 5.82 µM. Then `Cc1cc(N2CCCCC2)nc(NCc2ccccc2)n1`, with > 19.5 µM (inactive); and `COc1ccccc1C(=O)Nc1ccc2c(c1)nc(CCNC(=O)c1ccco1)n2C`, with 1.55 µM. Then `CC(C)CCNC(=O)CCCOc1cc(=O)n(C)c2ccccc12`, with 4.27 µM; and `CCOC(=O)c1cnc2c(C)cc(C)cc2c1NCCCN1CCOCC1`, with 3.47 µM. Consider `CCCCNC(=O)c1cc(-c2ccc(F)cc2)on1`, for which the AC26 was 3.45 µM. Then `COc1ccc(CCn2c(O)c(C=NCc3ccc4c(c3)OCO4)c(=O)[nH]c2=O)cc1OC`, with 3.43 µM; and `Cn1cccc1/C=C1\SC(=Nc2cccc(O)c2)NC1=O`, with 2.85 µM. `Cc1cc(=O)[nH]c2c(C)cc(S(=O)(=O)N3CCCCC3)cc12`: the AC26 was 4.41 µM. In the case of `COCCCNc1nnc(Cc2ccc(Cl)cc2)c(=O)[nH]1` it was 1.05 µM; in that of `COc1cc2c(cc1OC)C(C)N(C(=O)Nc1cc(C)cc(C)c1)CC2` (configuration not stated), 6.97 µM. Then `Cc1cc(C)nc(SC2CC(=O)N(c3ccc(C)c(C)c3)C2=O)n1` (configuration not stated), with 14.3 µM. Then `Cc1cccc(N2CCN(C(=O)c3cc(S(=O)(=O)N4CCCC4)cn3C)CC2)c1C`, with 2.05 µM; and `CN(C)S(=O)(=O)c1ccc(N2CCCC2)c(C(=O)Nc2nc3ccc(F)cc3s2)c1`, with 1.54 µM; and `CCOc1ccccc1N1CCN(C(=O)c2cc3ccccc3cc2OC)CC1`, with 3.44 µM. Regarding `CCOc1ccc(Nc2c3ccccc3nc3ccccc23)cc1`, the AC26 was 0.365 µM. For `Cn1c(=O)n(C)c2cc(NS(=O)(=O)c3ccc4c(c3)CCCC4)ccc21`, the AC26 was 2.67 µM. As to `Cc1ccc(-c2nn3c(C)nnc3s2)cc1NCc1c(F)cccc1Cl`, the AC26 is 7.65 µM. With `CC(C)(C)S(=O)(=O)N1C[C@H]2CC/C=C\C/C(c3ccccc3)=C\2[C@@H]1CCO`, the AC26 is 1.03 µM. Then `COc1ccccc1-c1cc(C(=O)Nc2cc(C)nn2-c2ccccc2)no1`, with 0.76 µM; and `O=C(NCCCN1CCOCC1)c1cc(-c2ccccc2)on1`, with 5.78 µM; and `O=C(CC1Sc2ccccc2NC1=O)NNc1ccc(Cl)c(Cl)c1` (configuration not stated), with 2.84 µM. Then `O=C1CCNc2cc3ccccc3cc21`, with 0.0325 µM; and `Cc1ccc2nsnc2c1NC(=O)c1ccc(-c2cc(Cl)ccc2Cl)o1`, with 0.846 µM. Then `COc1ccc(C(=O)/C=C2/C(=O)Nc3ccccc32)c(OC)c1`, with 4.07 µM; and `Cc1ccc(Nc2nc(N)nc(CN3CCN(Cc4ccccc4)CC3)n2)cc1Cl`, with 0.11 µM. With `c1ccc2cc3c(NCCN4CCOCC4)ccnc3cc2c1`, the AC26 was 0.515 µM. Then `CCN(CC(=O)Nc1ccccc1-c1ccccc1)Cc1nc2ccccc2c(=O)[nH]1`, with 1.47 µM; and `Cc1ccc(-n2c(SCC(=O)NCCC3=CCCCC3)nc3n[nH]c(C)c3c2=N)cc1Cl`, with 6.13 µM. As for `CC(Nc1nc(-c2ccccc2O)nc2ccccc12)c1ccccc1` (configuration not stated), the AC26 is 0.0656 µM. In the case of `CC(=O)c1ccc(Oc2cc(C)nc(-n3nc(C)cc3C)n2)cc1` it was 0.726 µM. In the case of `COC(=O)Nc1nc(-c2ccccc2)c(C(=O)c2ccc(Cl)cc2)s1` it was 0.00316 µM; in that of `COc1cc(OC)cc(C(=O)NCC(=O)Nc2ccc(-c3ccccc3)cc2)c1`, 8.83 µM; in that of `Cc1cc(=O)[nH]c(N/N=C/c2cc(C)n(CC(F)(F)F)c2C)n1`, 0.0476 µM.
